Experimental data: the NIST ThermoML archive (doi:10.1021/je800925v)
± gives the expanded uncertainty stated by the source.

Assay: xn = mol fraction of the nth substance listed
Details: Liquid

CCCCCC [hexane] + CCO
Details	mass density [kg/m3]	viscosity [mPa·s]
273.15 K, x2 = 0.101	688.8 ± 2.7	0.3638 ± 0.04
273.15 K, x2 = 0.198	694.5 ± 2.6	0.4 ± 0.041
273.15 K, x2 = 0.302	702 ± 2.6	0.4511 ± 0.042
273.15 K, x2 = 0.401	712.1 ± 2.5	0.5478 ± 0.045
273.15 K, x2 = 0.496	721.4 ± 2.5	0.6415 ± 0.047
273.15 K, x2 = 0.6	732.7 ± 2.4	0.77 ± 0.051
273.15 K, x2 = 0.701	744.1 ± 2.4	0.8963 ± 0.054
273.15 K, x2 = 0.793	760.4 ± 2.4	1.096 ± 0.059
273.15 K, x2 = 0.901	781.1 ± 2.3	1.377 ± 0.067
275.65 K, x2 = 0.101	686.5 ± 2.7	0.3563 ± 0.04
275.65 K, x2 = 0.198	692.3 ± 2.6	0.3904 ± 0.041
275.65 K, x2 = 0.302	699.7 ± 2.6	0.4388 ± 0.042
275.65 K, x2 = 0.401	709.8 ± 2.6	0.5294 ± 0.044
275.65 K, x2 = 0.496	719.2 ± 2.5	0.6182 ± 0.047
275.65 K, x2 = 0.6	730.5 ± 2.5	0.7386 ± 0.05
275.65 K, x2 = 0.701	741.9 ± 2.4	0.8583 ± 0.053
275.65 K, x2 = 0.793	758.3 ± 2.4	1.047 ± 0.058
275.65 K, x2 = 0.901	779 ± 2.3	1.311 ± 0.065
278.15 K, x2 = 0.101	684.3 ± 2.7	0.3492 ± 0.04
278.15 K, x2 = 0.198	690 ± 2.6	0.3812 ± 0.041
278.15 K, x2 = 0.302	697.5 ± 2.6	0.4269 ± 0.042
278.15 K, x2 = 0.401	707.6 ± 2.6	0.5119 ± 0.044
278.15 K, x2 = 0.496	716.9 ± 2.5	0.5956 ± 0.046
278.15 K, x2 = 0.6	728.3 ± 2.5	0.709 ± 0.049
278.15 K, x2 = 0.701	739.7 ± 2.4	0.8224 ± 0.052
278.15 K, x2 = 0.793	756.1 ± 2.4	1 ± 0.057
278.15 K, x2 = 0.901	776.8 ± 2.3	1.25 ± 0.063
280.65 K, x2 = 0.101	682 ± 2.7	0.3422 ± 0.04
280.65 K, x2 = 0.198	687.8 ± 2.7	0.3722 ± 0.04
280.65 K, x2 = 0.302	695.2 ± 2.6	0.4154 ± 0.042
280.65 K, x2 = 0.401	704.9 ± 2.6	0.4927 ± 0.043
280.65 K, x2 = 0.496	714.7 ± 2.5	0.5741 ± 0.045
280.65 K, x2 = 0.6	726.1 ± 2.5	0.6809 ± 0.048
280.65 K, x2 = 0.701	737.4 ± 2.4	0.7884 ± 0.051
280.65 K, x2 = 0.793	753.9 ± 2.4	0.9561 ± 0.056
280.65 K, x2 = 0.901	774.7 ± 2.3	1.191 ± 0.062
283.15 K, x2 = 0.101	679.8 ± 2.7	0.3352 ± 0.039
283.15 K, x2 = 0.198	685.5 ± 2.7	0.3635 ± 0.04
283.15 K, x2 = 0.302	692.9 ± 2.6	0.4042 ± 0.041
283.15 K, x2 = 0.401	702.7 ± 2.6	0.4766 ± 0.043
283.15 K, x2 = 0.496	712.4 ± 2.5	0.5537 ± 0.045
283.15 K, x2 = 0.6	723.8 ± 2.5	0.6543 ± 0.048
283.15 K, x2 = 0.701	735.2 ± 2.5	0.7562 ± 0.05
283.15 K, x2 = 0.793	751.7 ± 2.4	0.9147 ± 0.055
283.15 K, x2 = 0.901	772.5 ± 2.3	1.136 ± 0.06
285.65 K, x2 = 0.101	677.5 ± 2.7	0.3283 ± 0.039
285.65 K, x2 = 0.198	683.2 ± 2.7	0.3549 ± 0.04
285.65 K, x2 = 0.302	690.6 ± 2.7	0.3934 ± 0.041
285.65 K, x2 = 0.401	700.4 ± 2.6	0.4614 ± 0.043
285.65 K, x2 = 0.496	710.1 ± 2.6	0.5343 ± 0.044
